{
  "source": "patent US20170189484A1",
  "about": "“CEACAM5 PEPTIDES FOR CROHN'S DISEASE” (ICAHN SCHOOL OF MEDICINE AT MOUNT SINAI, priority 2014, published 2017)",
  "format_in_all_cases": "cell-based, human",
  "key": {"[1]": {"system": "peripheral blood CD8+ T cells", "experiment": "In vitro suppression assay, peripheral blood CD8+ T cells (CFSE CD4+ T cell proliferation)", "conditions": "for suppressor activity acquired by stimulated CD8+ T cells (suppression of CD4+ T cell proliferation): 10 μg/mL, 3 days, co-culture 1:1 with CFSE-labeled CD3/CD28-stimulated CD4+ T cells; for percent suppression of CD4+ T cell proliferation (suppressive activity): single peptide 10 μg/mL, normalized against unstimulated CD8+ T cells", "text": "To identify the N-domain peptides that trigger the activation of CD8+ T cells with the suppressor phenotype, peripheral blood CD8^+ T cells and peripheral blood CD4^+ T cells were selected using CD8^+ and CD4^+ T-cell selection kits (Stemcell Technologies, Vancouver, Canada), respectively.\nAnti-CD3/CD28 beads were used as positive controls. Cells were then washed, counted, and added at a ratio of 1:1 (2×10^6) to peripheral CD4^+ T cells labeled with carboxyfluorescein succinimidyl ester (CFSE) (Invitrogen, CA), and either unstimulated or stimulated with anti-CD3/CD28 beads.\n(§1) Proliferation of CD4^+ T-cells measured by CFSE dilution was evaluated by flow cytometry. CD4+ T cells were labeled with PE anti-CD4 antibody. Percent suppression was calculated based on equation 1:\n(§2) % Supp=100*[1−(%Exp/%Control)] (1)\n(§3) where: • %Supp=percent suppression • %Exp=the percentage of proliferating CD4+ T cells in the experimental population • % Control=the percentage of proliferating CD4+ T cells in the control population\nThese peptides were selected due to their activity in the phosphorylation assay. […] Peptides 13 and 15 were also shown to activate suppression, although to a more modest extent (˜10% suppressive activity).\nFinally, peptides a-d (see FIG. 7A) were also evaluated using the same procedure, incubating the cells with each single peptide (10 μg/mL)."}, "[2]": {"system": "LcK phosphorylation in peripheral blood CD8+ T cells", "experiment": "In cell western blot LcK phosphorylation assay", "conditions": "10 μg/mL, 5, 10, 15 minutes", "experimental": "The library of peptides 1-20 was first evaluated by western blot for their ability to activate CD8+ T cells, as indicated by the ability to stimulate LcK phosphorylation (“pLcK”). Peripheral blood isolated CD8′ T cells (2×10^6) were seeded in a 96-well flat-bottom plate and starved in RPMI serum free medium overnight at 37° C. The next day and prior to performing the experiments, the plate was placed on ice for 15 minutes. Cells were stimulated with OKT8 (5 μg/mL) (a known CD8+ T cell activator), purified CEACAM5 peptide (10 μg/mL), the entire library of peptides (10 μg/mL), Pool 1 (10 μg/mL), Pool 2 (10 μg/mL), Pool 3 (10 μg/mL), or each single N-domain peptide (10 μg/mL). Unstimulated cells were also evaluated for each condition. Prior to these experiments a titration curve was performed for the entire library of peptides. A range of concentration between 1 and 100 μg/mL was tested.\nStimulation was stopped using a 4% formaldehyde buffer for 20 minutes followed by centrifugation for 10 minutes at 1,500 rpm. Permeabilization was performed by washing the cells with 1×PBS containing 0.1% Triton X-100 for 5 minutes per wash. After permeabilization, cells were incubated for 1 hour with a blocking buffer (Odyssey Blocking buffer-LICOR) followed by the primary antibodies (goat anti-actin and rabbit anti-pLcK) overnight at 4° C. The next day, cells were washed 5 times with 1×PBS containing 0.1% Tween 20, incubated for 1 hour at room temperature with the secondary antibodies (IRDye 800CW donkey anti goat IgG, IRDye 680 CW donkey anti rabbit IgG), and then washed five times. Wells were dried and the plate was scanned using an Odyssey LiCOR system. The software ImageJ was used for quantification of pLcK. Each value was calculated using actin expression as a house keeping gene and taking into consideration any background noise. […]"}, "[3]": {"system": "normal lamina propria CD8+ T cells", "experiment": "Cytokine IL10 production in lamina propria CD8+ T cells", "conditions": "cultured 3 days; supernatant assessed", "experimental": "Cytokine production in lamina propria CD8+ T cells was evaluated. Normal lamina propria CD8+ and CD4+(control) T cells were cultured for 3 days in presence of OKT8 (control) or either CEACAM5 or peptide 12. The supernatant was then assessed for cytokine production."}, "[4]": {"system": "CD8-associated LcK kinase in CD8+ T cells", "experiment": "Flow cytometry LcK phosphorylation assay", "conditions": "2, 8, 10, 15 minutes at 37° C., peptide 12 at 20 μg/ml", "experimental": "To confirm the ability of peptide 12 to activate CD8+ T cells, a second LcK phosphorylation assay was conducted using flow cytometry. CD8+ T cells were treated for different time points (2, 8, 10, 15 minutes) at 37° C. with H2O2 at 10 mM, CEACAM5 supernatant from PIPLC-293T cells expressing CEACAM5, and peptide 12 (20 μg/ml). Stimulation was stopped by fixing with 4% formaldehyde for 10 minutes at room temperature. Subsequently, cells were permeabilized with ice-cold methanol for 20 minutes, washed with PBS containing 0.2% FBS, and then stained with anti-phospho-Lck Ab (BD Biosciences, San Jose, Calif.). The cells were then re-suspended in PBS plus 0.2% FBS, data were acquired using the FACScan system (LSRFortessa, BD Biosciences), and analyzed with FlowJo analysis software (Ashland, Oreg.)."}, "[5]": {"system": "Crohn's disease lamina propria CD8+ T cells", "experiment": "In vitro suppression assay, Crohn's disease lamina propria CD8+ T cells (suppression of CD4+ T cell proliferation)", "conditions": "for average suppression percentage (suppressor phenotype): Crohn's disease lamina propria CD8+ cells, relative to CD4+ proliferation with normal unstimulated CD8+ T cells", "experimental": "(§4) Lamina propria lymphocytes were isolated from patients undergoing surgery for Crohn's disease (CD) or colon cancer (representing a normal (NL) T cell population). Lamina propria CD8+ T cells were isolated after overnight incubation and incubated with CEACAM5 peptide for 3 days. CD8+ T cells were then washed and co-cultured with CFSE-CD3/CD28-stimulated CD4+ T cells for 3 days. Suppression of CD4+ T cell proliferation was measured on the 7th day.\nas §1, §2, §3\n(§5) Lamina propria lymphocytes were isolated from patients undergoing surgery for Crohn's disease (CD) or colon cancer (representing a normal (NL) T cell population). Lamina propria CD8+ T cells were isolated after overnight incubation and incubated with CEACAM5 peptide or peptide 12 for 3 days. CD8+ T cells were then washed and co-cultured with CFSE-CD3/CD28-stimulated CD4+ T cells for 3 days. Suppression of CD4+ T cell proliferation was measured on the 7th day."}, "[6]": {"system": "normal lamina propria CD8+ T cells", "experiment": "In vitro suppression assay, normal (colon cancer) lamina propria CD8+ T cells", "conditions": "normal condition (colon cancer biopsies); CD8+ T cells incubated 3 days, vs absence of CEACAM5", "experimental": "as §4, §5"}},
  "data": [
    {"molecule": "GYVIGTQQATPGPAYSGREI (Fragment of the CEACAM5 N-terminal domain) [peptide c]", "values": [
      {"measurement": "suppressor activity acquired by stimulated CD8+ T cells (suppression of CD4+ T cell proliferation)", "setting": "[1]", "value": "acquired suppressor activity"}
    ]},
    {"molecule": "H-ASLLIQNIIQNDTGF-OH [peptide 15]", "values": [
      {"measurement": "percent suppression of CD4+ T cell proliferation (suppressive activity)", "setting": "[1]", "value": "~10", "unit": "%"}
    ]},
    {"molecule": "H-IGYVIGTQQATPGPA-OH [peptide 10]", "values": [
      {"measurement": "CD8+ T cell activation (LcK phosphorylation, p-LcK)", "setting": "[2]", "value": "induced phosphorylation of LcK at after 10 minutes"}
    ]},
    {"molecule": "H-TPGPAYSGREIIYPN-OH [peptide 12]", "values": [
      {"measurement": "IL10 production", "setting": "[3]", "value": "increased IL10"},
      {"measurement": "phosphorylation of CD8-associated LcK kinase", "setting": "[4]", "value": "induce phosphorylation of CD8-associated LcK kinase"},
      {"measurement": "suppressor activity acquired by stimulated CD8+ T cells (suppression of CD4+ T cell proliferation)", "setting": "[1]", "value": "acquired suppressor activity at the same extant as those activated with full-length CEACAM5"},
      {"measurement": "average suppression percentage (suppressor phenotype)", "setting": "[5]", "value": 64, "unit": "%"},
      {"measurement": "CD8+ T cell activation (LcK phosphorylation, p-LcK)", "setting": "[2]", "value": "greatest effect in the activation of CD8+ T cells"}
    ]},
    {"molecule": "H-GTQQATPGPAYSGRE-OH [peptide 11]", "values": [
      {"measurement": "CD8+ T cell activation (LcK phosphorylation, p-LcK)", "setting": "[2]", "value": "induced phosphorylation of LcK at after 10 minutes"}
    ]},
    {"molecule": "H-YSGREIIYPNASLLI-OH [peptide 13]", "values": [
      {"measurement": "percent suppression of CD4+ T cell proliferation (suppressive activity)", "setting": "[1]", "value": "~10", "unit": "%"}
    ]},
    {"molecule": "TQQATPGPAYSGREIITPNA (Fragment of the CEACAM5 N-terminal domain) [peptide d]", "values": [
      {"measurement": "suppressor activity acquired by stimulated CD8+ T cells (suppression of CD4+ T cell proliferation)", "setting": "[1]", "value": "acquiring suppressor activity to the same extent as cells activated with peptide 12"}
    ]},
    {"molecule": "CEACAM5: carcinoembryonic antigen family member 5 (GenBank Accession No. NP_001278413), full-length purified glycoprotein used as comparator (protein) KLTIESTPFNVAEGKEVLLLVHNLPQHLFGYSWYKGERVDGNRQIIGYVIGTQQATPGPAYSGREIIYPNASLLIQNIIQNDTGFYTLHVIKSDLVNEEATGQFRVYPELPKPSISSNNSKPVEDKDAVAFTCEPETQDATYLWWVNNQSLPVSPRLQLSNGNRTLTLFNVTRNDTASYKCETQNPVSARRSDSVILNVLYGPDAPTISPLNTSYRSGENLNLSCHAASNPPAQYSWFVNGTFQQSTQELFIPNITVNNSGSYTCQAHNSDTGLNRTTVTTITVYEPPKPFITSNNSNPVEDEDAVALTCEPEIQNTTYLWWVNNQSLPVSPRLQLSNDNRTLTLLSVTRNDVGPYECGIQNELSVDHSDPVILNVLYGPDDPTISPSYTYYRPGVNLSLSCHAASNPPAQYSWLIDGNIQQHTQELFISNITEKNSGLYTCQANNSASGHSRTTVKTITVSAELPKPSISSNNSKPVEDKDAVAFTCEPEAQNTTYLWWVNGQSLPVSPRLQLSNGNRTLTLFNVTRNDARAYVCGIQNSVSANRSDPVTLDVLYGPDTPIISPPDSSYLSGANLNLSCHSASNPSPQYSWRINGIPQQHTQVLFIAKITPNNNGTYACFVSNLATGRNNSIVKSITVSASGTSPGLSA", "values": [
      {"measurement": "IL10 production", "setting": "[3]", "value": "increased IL10"},
      {"measurement": "phosphorylation of CD8-associated LcK kinase", "setting": "[4]", "value": "induce phosphorylation of CD8-associated LcK kinase"},
      {"measurement": "average suppression percentage (suppressor phenotype)", "setting": "[5]", "value": 63, "unit": "%"},
      {"measurement": "suppressive function of lamina propria CD8+ T cells", "setting": "[5]; Crohn's disease, CD8+ T cells incubated 3 days", "value": "stimulates the suppressive function"},
      {"measurement": "suppressive function of lamina propria CD8+ T cells", "setting": "[6]", "value": "increased suppressive function"}
    ]}
  ]
}
